Earlier results as cited in PubChem BioAssay AID1259409 (Chemical Carcinogenesis Research Information System (CCRIS), 2018).

System: rodent chemically induced tumor inhibition, incidence and multiplicity
Assay: CCRIS tumor inhibitor studies
Settings: Dose [Inhibitor]: 0, 400 NMOL ONCE APPLIED 5 MIN PRIOR TO CARCINOGEN DOSE (STUDY DURATION: 25 WK), Route [Inhibitor]: DERMAL, Species: MOUSE, Strain/Sex: SENCAR, Target Tissue: Type of Lesion: SKIN: PAPILLOMA, Promoter: 12-O-TETRADECANOYLPHORBOL-13-ACETATE, 16561-29-8

## COc1c2ccoc2cc2cc(C)oc(=O)c12
Carcinogen: 7,12-DIMETHYLBENZ[A]ANTHRACENE, 57-97-6, Dose [Carcinogen]: 10 NMOL ONCE
  tumour outcome (control, treated, inhibition, significance): 96%, 96%, 0%, not significant
Carcinogen: BENZO[A]PYRENE, 50-32-8, Dose [Carcinogen]: 200 NMOL ONCE
  tumour outcome (control, treated, inhibition, significance): 91%, 91%, 0%, not significant
